Experimental findings from patent publication US8722628B2, “Autophagy-inducing peptide” (priority 2012, dated 2014) are described below.

The subject of this assay is H1975 cells. The note with it: EGFR T790M.

Structures are written as SMILES.

Regarding `C#Cc1cccc(Nc2ncnc3cc(OCCOC)c(OCCOC)cc23)c1` [Erlotinib], the autophagy induction result is recorded as “fails to induce autophagy” and the cell killing result was “fails to kill the cells”.
